Results reported in US7632506B2, “Identification of new NY-ESO-1 epitopes recognized by CD4+ T-cells” (Ludwig Institute for Cancer Research, priority 2005, dated 2009).

What was measured:
[1] = system: CD4+ T cell clones NW2337-CD4-1 and NW2337-CD4-10; assay: 51Cr release assay with peptide-pulsed EBV-B target cells; format: cell-based, human; conditions: for recognition by clone NW2337-CD4-10: clone generated with p55-72
Experimental: In these experiments, exemplary clones NY-ESO-1 p49-66 specific CD4^+ T cell clone NW2337-CD4-1 and NY-ESO-1 p55-72 specific CD4^+ T cell clone NW2337-CD4-10 were characterized in ^51Chromium (^51Cr) release assays using peptides overlapping the sequence of each stimulation peptide. Standard ^51Cr release assay methods were used. Briefly, autologous EBV B cell target cells were labeled with 100 μCi Na2^51CrO4 for 2 hours, and pulsed with 18 mer or 20 mer NY-ESO-1 peptides (10 μg/ml) for 1 hour. Then, 1×10^3 target cells/well were incubated in 96 V- bottom microwell plates with effector cells at different E/T ratios for 4 h at 37° C. ^51Cr release was measured in the supernatant and the specific cytotoxicity was calculated using the standard methods. Polyclonal T-cell populations were preincubated with unlabeled K562 cells as competitors at a concentration of 40:1 in order to block non-specific effector reactions.
These experiments confirmed recognition of naturally presented NY-ESO-1 epitopes by the CD4+ T-cell clones.

[2] = system: CD4+ T cells; assay: IFN-γ ELISPOT of CD4+ T cells presensitized with overlapping NY-ESO-1 18 mer peptides; format: cell-based, human; conditions: for Patient T cells 1 / Patient T cells 2 / Patient T cells 3: IFN-γ ELISPOT; for Patient T cells 1: day 12, CD4+ T cells of patient 1, autologous peptide pulsed EBV-B cells as targets; for Patient T cells 2: day 12, CD4+ T cells of patient 2, autologous peptide pulsed EBV-B cells as targets; for Patient T cells 3: day 12, CD4+ T cells of patient 3, autologous peptide pulsed EBV-B cells as targets; for patients whose CD4+ T cells recognized the peptide: three patients tested
Experimental: Peripheral blood mono-nuclear cells (“PBMCs”) were separated from heparinized blood via Ficoll density gradient separation, using standard, art recognized techniques. Once this was done, the CD4^+ and CD8^+ T cells were separated from each other using magnetic cell sorting techniques which are well known to the art, producing CD4^+, CD8^+, and CD4^−/CD8^− cell populations.
A series of 18 mer peptides were prepared from the amino acid sequence of NY-ESO-1 as set forth in, e.g., U.S. Pat. No. 5,804,381, incorporated by reference. The peptides were designed to cover the entire sequence of NY-ESO-1, and to provide overlap.
The peptides were then individually pulsed to antigen presenting cells (“APCs”). These were CD4^−/CD8^− PBMCs taken from the same subjects who had provided the CD4^+ and CD8^+ cells. These APCs were irradiated with 3000 rads, and then pulsed with one of the peptides, at a concentration of 10 μg/ml, for 1 hour, in serum free medium. These APCs were then washed, and added to the CD4^+ cells. In the pulsing experiments, the peptides were solubilized in DMSO (100%) and then diluted with PBS to a final concentration of 10% DMSO. The CD4^+ cells had been cultured in a medium of L-arginine (242 mg/l), L-asparagene (50 mg/l), L-glutamine (300 mg/l), penicillin (10 IU/ml), streptomycin (100 μg/ml), 1% non-essential amino acids, 10% HS, and 10 ng/ml of recombinant human IL-2.
(§1) The CD4^+ T cells were restimulated weekly with 1 μg/ml of the peptide being used. On day 12, each CD4^+ culture was assayed for NY-ESO-1 peptide recognition, using the ELISPOT assay of lager, et al., Proc. Natl. Acad. Sci. USA, 97(9):4760-4765 (2000), incorporated by reference. To elaborate on this procedure, flat-bottomed, 96-well nitrocellulose plates were coated with 5 μg/ml of anti-interferon-gamma antibody and incubated overnight at 4° C. After washing with PBS, plates were blocked with 10% human serum (HS) for 1 hour at 37° C. Depending on the effector:target ratio used, various numbers of presensitized CD4^+ T-cells were added to each well along with 5×10^4 autologous peptide pulsed EBV transfected B cells (“EBV-B cells”) serving as target cells and incubated for 16 hours at 37° C. in TCM without IL-2. Plates were then washed extensively (6 times with a solution of 0.05% Tween 20/PBS), and biotinylated anti-interferon-gamma detection antibody was added at a concentration of 0.5 μg/ml. After incubation for 2 h at 37° C., plates were washed and incubated with ABC-AP Vectastain for 1 hour. Plates were washed again and developed with substrate (BCIP/NPT) until blue spots were visible. The number of blue spots/well represented the proportion of NY-ESO-1 specific CD4^+ T-cells/well was finally counted under the microscope.
The EBV-B-cells were generated from each patients' PBMC following standard methods and maintained in RPMI 1640 medium supplemented with 10 mM Hepes buffer, L-arginine (242 mg/l), L-asparagine (50mg/l), L-glutamine (300 mg/l), penicillin (10 IU/ml), streptomycin (100 μg/ml), 1% non-essential amino acids, and 10% FCS. […] PBMC's or EBV-B-cells were molecularly typed for HLA expression using standard procedures.

[3] = system: CD4+ T cell clones NW2337-CD4-1 and NW2337-CD4-10; assay: Peptide titration ELISPOT assay with overlapping NY-ESO-1 peptides; format: cell-based, human; conditions: peptide 10 μM to 0.1 nM pulsed onto autologous EBV-B-cells
Experimental: as §1
To further identify the exact epitope required for CD4^+ T cell recognition by these two CD4^+ T cell clones, a peptide titration assay was performed using overlapping NY-ESO-1 peptides (FIG. 2) at concentrations between 10 μM and 0.1 nM, pulsed onto autologous EBV-B-cells and tested in ELISPOT assays (FIG. 3).

[4] = system: CD4+ T cells; assay: IFN-γ ELISPOT of CD4+ T cells presensitized with overlapping NY-ESO-1 18 mer peptides; format: cell-based, human; conditions: patient NW2337, limiting dilution
[5] = system: NW2337 CD4+ T cells; assay: Cytokine ELISPOT assays (IFNγ, TNFα, IL4, IL10) of NW2337 CD4+ T cells; format: cell-based, human
Source text: All ELISPOT assay described, supra were designed to detect IFN-γ secretion by the T cell clones following specific antigen stimulation. To determine the phenotype of the NY-ESO-1 specific CD4^+ T cell clones from patient NW2337, additional ELISPOT assays were designed to detect additional cytokines.
The NW2337 CD4^+ T cells were stimulated with either NY-ESO-1 p49-66 and p55-72 peptides and T cells secretion of IFNγ, TNFα, IL4 and IL10measured by ELISPOT assay. […] IL4 and IL10 was not secreted by any of the NY-ESO-1 specific CD4^+ T-cell clones tested following stimulation with NY-ESO-1 p49-66 and p55-72 peptides.

[6] = biological target: T1, HLA-DQB1 03011 (Homo sapiens, UniProt P01909+P01920); assay: ELISPOT with peptide pulsed allogeneic EBV-B-cells of known HLA class II type (HLA restriction); format: cell-based; conditions: only shared allele of the recognized peptide pulsed allogenic EBV-B cell lines
T1 construct: peptide pulsed allogeneic EBV-B-cells with known HLA class II types as stimulator cells; endogenous in cells; host or cells: allogeneic patient-derived EBV-transformed B-cell lines (NW-2078, NW-2081, NW-2395, NW-2234, NW-2337, NW-1100, MZ-1257)
Experimental: In order to determine the HLA molecule to which the novel NY-ESO-1 peptides described above bind, the NW2337 CD4^+ T-cell clones NW2337-CD4-1 and NW2337-CD4-10, were tested in ELISPOT assays using a range of peptide pulsed allogeneic EBV-B-cells with known HLA class II types as stimulator cells as indicated in the following Table. The EBV-B-cell lines were HLA typed using standard methods as described above.
The NW2337-CD4-1 clone recognized allogenic peptide pulsed EBV-B cells from patients NW-2078, NW-2081, NW-2395, NW-2234, NW-2337, NW-1100 and MZ-1257. The allogenic EBV-B cells were recognized by the T cells when pulsed exogenously with either the NY-ESO-1 p49-66 or p55-72 as observed with autologous EBV-B cells described above. […] None of the EBV-B-cells lines that were not recognized by the T cells expressed this MHC allele. […] Again the NY-ESO-1 positive MZ-1257 EBV-B-cell line was recognized with or without exogenous peptide.

[7] = autologous EBV B cells pulsed with peptide 10 μg/ml

T1 sequence (P01920 33-261, other chains not shown): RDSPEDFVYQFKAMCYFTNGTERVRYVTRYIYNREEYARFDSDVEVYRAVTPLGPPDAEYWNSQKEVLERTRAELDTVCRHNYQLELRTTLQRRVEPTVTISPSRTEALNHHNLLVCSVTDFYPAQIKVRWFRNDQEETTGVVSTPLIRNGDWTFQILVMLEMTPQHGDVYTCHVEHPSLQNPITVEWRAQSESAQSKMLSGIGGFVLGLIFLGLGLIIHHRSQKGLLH

Q: Which results are given for “P61-78: synthetic 18 mer peptide, amino acids 61-78 of NY-ESO-1 (PRGPHGGAASGLNGCCRC; UniProt P78358 61-78, looked up, fragment) [Peptide P61-78]”?
A: recognition by clone NW2337-CD4-10 [1, 7]: crossreacted; Patient T cells 1 [2]: + (+ indicates >50 spots (all + scores indicated were >100 spots)); Patient T cells 2 [2]: + (+ indicates >50 spots (all + scores indicated were >100 spots)); Patient T cells 3 [2]: + (+ indicates >50 spots (all + scores indicated were >100 spots)); patients whose CD4+ T cells recognized the peptide [2]: all three patients; recognition by clone NW2337-CD4-10 [3]: able to recognize

Q: For “61-80: overlapping 20 mer NY-ESO-1 peptide, amino acids 61-80 (PRGPHGGAASGLNGCCRCGA; UniProt P78358 61-80, looked up, fragment) [Peptide 61-80]”, which “recognition by clone NW2337-CD4-10” value [3] is on record?
A: Its value is “able to recognize”.

Q: For “p51-70: overlapping 20 mer NY-ESO-1 peptide, amino acids 51-70 (ARASGPGGGAPRGPHGGAAS; UniProt P78358 51-70, looked up, fragment)”, which “recognition by clone NW2337-CD4-1” value [3] is on record?
A: The value was “recognized”.

Q: How did the “lysis of peptide pulsed autologous NW-2337-EBV B-cell lines by clones NW-2337-CD4-1 and -4” value [1] turn out when “P49-66: synthetic 18 mer peptide, amino acids 49-66 of NY-ESO-1 (GAARASGPGGGAPRGPHG; UniProt P78358 49-66, looked up, fragment) [Peptide P49-66]” was run?
A: The value was “efficiently lysed”.

Q: What about the “recognition by clone NW2337-CD4-1” value ([1]; autologous EBV B cells pulsed with peptide 10 μg/ml, clone generated with p49-66) of the same substance?
A: The value was “recognized”.

Q: And the “recognition by clone NW2337-CD4-10” value [1, 7]?
A: The value was “did not crossreact”.

Q: What about the “Patient T cells 1” value [2] of the same substance?
A: Its value is “+ (+ indicates >50 spots (all + scores indicated were >100 spots))”.

Q: And the “Patient T cells 2” value [2]?
A: The value was “+ (+ indicates >50 spots (all + scores indicated were >100 spots))”.

Q: What about the “Patient T cells 3” value [2] of the same substance?
A: The value was “+ (+ indicates >50 spots (all + scores indicated were >100 spots))”.

Q: What about the “patients whose CD4+ T cells recognized the peptide” value [2] of the same substance?
A: The value was “all three patients”.

Q: What about the “recognition by clone NW2337-CD4-1” value [3] of the same substance?
A: The value was “recognized”.

Q: What about the “CD4+ T-cell clones generated by stimulation with peptide” value [4] of the same substance?
A: Its value is 27.

Q: What about the “IFN-γ secretion by stimulated T cell clones” value [5] of the same substance?
A: Its value is “produced”.

Q: What about the “IL4 secretion by stimulated T cell clones” value [5] of the same substance?
A: The value was “not secreted”.

Q: And the “IL10 secretion by stimulated T cell clones” value [5]?
A: The value was “not secreted”.

Q: And the “TNF-α secretion by stimulated T cell clones” value [5]?
A: Its value is “produced”.

Q: And the “MHC class II allele presenting the peptide to NW2337-CD4-1 T cells” value [6]?
A: Its value is “HLA-DQB1 03011”.

Q: With “P79-96: synthetic 18 mer peptide, amino acids 79-96 of NY-ESO-1 (GARGPESRLLEFYLAMPF; UniProt P78358 79-96, looked up, fragment) [Peptide P79-96]” as the substance, how does the “Patient T cells 1” value [2] read?
A: The value was “− (− indicates <50 spots)”.

Q: What about the “Patient T cells 2” value [2] of the same substance?
A: The value was “− (− indicates <50 spots)”.

Q: And the “Patient T cells 3” value [2]?
A: The value was “− (− indicates <50 spots)”.

Q: How did the “Patient T cells 1” value [2] turn out when “P13-30: synthetic 18 mer peptide, amino acids 13-30 of NY-ESO-1 (GDADGPGGPGIPDGPGGN; UniProt P78358 13-30, looked up, fragment) [Peptide P13-30]” was run?
A: Its value is “− (− indicates <50 spots)”.

Q: What about the “Patient T cells 2” value [2] of the same substance?
A: Its value is “− (− indicates <50 spots)”.

Q: What about the “Patient T cells 3” value [2] of the same substance?
A: The value was “− (− indicates <50 spots)”.

Q: For “P73-90: synthetic 18 mer peptide, amino acids 73-90 of NY-ESO-1 (NGCCRCGARGPESRLLEF; UniProt P78358 73-90, looked up, fragment) [Peptide P73-90]”, which “Patient T cells 1” value [2] is on record?
A: The value was “− (− indicates <50 spots)”.

Q: And the “Patient T cells 2” value [2]?
A: The value was “− (− indicates <50 spots)”.

Q: What about the “Patient T cells 3” value [2] of the same substance?
A: The value was “− (− indicates <50 spots)”.
